Data from patent publication US20140121216A1, “INDOLEAMINE DERIVATIVES FOR THE TREATMENT OF CENTRAL NERVOUS SYSTEM DISEASES” (Adamed Sp. z o.o., priority 2011, published 2014).
Like-named read-outs stand apart in the source and are kept apart here.

What was measured:
[1] = target: T1, 5-HT2A (h), human recombinant (HEK-293 cells) (Homo sapiens, UniProt P28223); test: Cellular functional assay 5-HT2A (h) agonism; format: cell-based; settings: compound 1×10^−6 M; control 10 μM serotonin
T1 construct: expressed in transfected cells; host or cells: HEK-293 cells
T1 sequence (P28223 whole entry): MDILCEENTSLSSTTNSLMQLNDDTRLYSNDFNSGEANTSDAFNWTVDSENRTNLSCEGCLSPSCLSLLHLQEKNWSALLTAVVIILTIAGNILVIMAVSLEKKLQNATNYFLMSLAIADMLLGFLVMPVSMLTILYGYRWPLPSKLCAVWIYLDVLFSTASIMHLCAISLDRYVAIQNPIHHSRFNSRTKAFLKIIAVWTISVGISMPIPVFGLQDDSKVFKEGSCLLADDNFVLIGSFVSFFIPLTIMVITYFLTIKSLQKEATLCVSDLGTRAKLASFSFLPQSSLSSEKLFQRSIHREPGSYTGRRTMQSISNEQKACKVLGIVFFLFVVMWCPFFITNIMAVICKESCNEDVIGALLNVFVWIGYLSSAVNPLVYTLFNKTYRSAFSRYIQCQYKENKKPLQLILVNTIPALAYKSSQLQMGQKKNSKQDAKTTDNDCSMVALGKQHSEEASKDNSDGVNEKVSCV
Experimental: The results are expressed as a percent of control specific agonist response ((measured specific response/control specific agonist response)×100) obtained in the presence of tested compound.
The EC50 values (concentration producing a half-maximal specific response) and IC50 values (concentration causing a half-maximal inhibition of the control specific agonist response) were determined by non-linear regression analysis of the concentration-response curves generated with mean replicate values using Hill equation curve fitting (Y=D+[(A−D)/(1+(C/C50)nH)], where Y=specific response, D=minimum specific response, A=maximum specific response, C=compound concentration, and C50=EC50 or IC50, and nH=slope factor).
For the antagonists, the apparent dissociation constants (Kb) were calculated using the modified Cheng Prusoff equation (Kb=IC50/(1+(A/EC50A)), where A=concentration of reference agonist in the assay, and EC50A=EC50 value of the reference agonist).

[2] = target: T2, 5-HT2A receptor, human recombinant (Homo sapiens, UniProt P28223); test: Binding assay, 5-HT2A receptor ([3H]ketanserin)
Experimental: (§1) Moreover, ability of the compounds of the invention to block potassium channel hERG was tested.
(§2) The specific ligand binding to the receptors is defined as the difference between the total binding and the non-specific binding determined in the presence of an excess of unlabelled ligand.
(§3) The inhibition constants (Ki) were calculated using the Cheng Prusoff equation (Ki=IC50/(1+(L/KD)), where L=concentration of radioligand in the assay, and KD=affinity of the radioligand for the receptor). A Scatchard plot is used to determine the Kd. The IC50 values (concentration causing a half-maximal inhibition of control specific binding) and Hill coefficients (nH) were determined by non-linear regression analysis of the competition curves generated with mean replicate values using Hill equation curve fitting (Y=D+[(A−D)/(1+(C/C50)^nH)], where Y=specific binding, D=minimum specific binding, A=maximum specific binding, C=compound concentration, C50=IC50, and nH=slope factor).
Target sequence in this assay (P28223 whole entry, looked up): as the sequence (P28223 whole entry) above

[3] = target: T3, 5-HT1A receptor (rat hippocampus) (Rattus norvegicus, UniProt P19327); test: Binding assay, 5-HT1A receptor ([3H]8-OH-DPAT); settings: read-out: Inhibition constant Ki 5-HT1A
T3 construct: hippocampus; from tissue; host or cells: rat hippocampus
T3 sequence (P19327 1-422): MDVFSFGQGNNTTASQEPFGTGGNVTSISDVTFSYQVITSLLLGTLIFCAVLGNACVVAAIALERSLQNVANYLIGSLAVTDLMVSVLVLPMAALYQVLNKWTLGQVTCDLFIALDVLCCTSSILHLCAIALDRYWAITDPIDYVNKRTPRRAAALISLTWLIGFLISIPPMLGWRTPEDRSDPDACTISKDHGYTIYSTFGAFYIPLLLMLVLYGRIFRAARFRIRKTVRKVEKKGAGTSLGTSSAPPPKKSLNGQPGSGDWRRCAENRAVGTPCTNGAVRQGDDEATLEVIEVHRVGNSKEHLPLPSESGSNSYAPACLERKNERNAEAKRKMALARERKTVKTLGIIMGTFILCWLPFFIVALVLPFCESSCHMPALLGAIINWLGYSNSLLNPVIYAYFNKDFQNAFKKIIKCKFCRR
Experimental: as §1, §2, §3

[4] = target: T4, M3 muscarinic receptors, human recombinant (CHO cells) (Homo sapiens, UniProt P20309); test: Binding assay, M3 muscarinic receptor ([3H]4-DAMP); settings: compound 1×10^−6 M
T4 construct: expressed in transfected cells; host or cells: CHO cells
T4 sequence (P20309 whole entry): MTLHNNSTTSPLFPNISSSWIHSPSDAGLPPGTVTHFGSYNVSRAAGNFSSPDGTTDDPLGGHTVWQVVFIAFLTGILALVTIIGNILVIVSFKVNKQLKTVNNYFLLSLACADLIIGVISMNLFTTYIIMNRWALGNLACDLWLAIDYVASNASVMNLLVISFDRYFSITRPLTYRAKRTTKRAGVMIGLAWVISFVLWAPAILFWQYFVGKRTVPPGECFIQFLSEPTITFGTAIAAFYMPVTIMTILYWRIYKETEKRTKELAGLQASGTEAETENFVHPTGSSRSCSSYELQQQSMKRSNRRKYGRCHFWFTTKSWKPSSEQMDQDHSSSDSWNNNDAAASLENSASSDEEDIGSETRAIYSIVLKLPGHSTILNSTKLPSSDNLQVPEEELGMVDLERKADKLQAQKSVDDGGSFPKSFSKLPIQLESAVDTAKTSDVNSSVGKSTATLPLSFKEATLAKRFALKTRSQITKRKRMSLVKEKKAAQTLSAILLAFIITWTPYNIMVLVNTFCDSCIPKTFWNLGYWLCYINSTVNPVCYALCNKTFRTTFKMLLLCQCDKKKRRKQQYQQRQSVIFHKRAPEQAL
Experimental: as §1, §2
as §3, with “factor). This analysis was performed using a software developed at Cerep (Hill software) and validated by comparison with data generated by the commercial software SigmaPlot® 4.0 for Windows® (©1997 by SPSS Inc.).” for “factor).”
Experimental conditions for tests are given in Table 10, and results of tests for representative compounds are given in Table 11.

[5] = target: T2, 5-HT2A receptor, human recombinant; test: Binding assay, 5-HT2A receptor ([3H]ketanserin); design: purchased PerkinElmer; settings: read-out: Inhibition constant Ki 5-HT2A
Experimental: as §1, §2, §3
Target sequence in this assay (P28223 whole entry): as the sequence (P28223 whole entry) above

[6] = target: T5, 5-HT6 receptor, human recombinant (Homo sapiens, UniProt P50406); test: Binding assay, 5-HT6 receptor ([3H]LSD); settings: read-out: Inhibition constant Ki 5-HT6
T5 construct: purchased PerkinElmer
T5 sequence (P50406 whole entry): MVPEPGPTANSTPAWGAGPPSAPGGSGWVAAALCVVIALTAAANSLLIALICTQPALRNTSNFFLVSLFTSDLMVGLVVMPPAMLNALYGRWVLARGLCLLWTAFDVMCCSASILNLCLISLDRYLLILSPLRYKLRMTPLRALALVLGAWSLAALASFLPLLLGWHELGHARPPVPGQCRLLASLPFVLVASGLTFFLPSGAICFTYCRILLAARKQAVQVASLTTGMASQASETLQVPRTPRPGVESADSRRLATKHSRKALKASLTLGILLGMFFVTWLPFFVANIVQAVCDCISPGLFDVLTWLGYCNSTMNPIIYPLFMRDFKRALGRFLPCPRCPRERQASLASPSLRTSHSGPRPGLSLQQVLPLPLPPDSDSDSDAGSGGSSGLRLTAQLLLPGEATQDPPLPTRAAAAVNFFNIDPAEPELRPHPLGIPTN
Experimental: as §1, §2, §3

[7] = target: T6, D2 receptor, human recombinant (GeneBLAzer D2-Gqo5 CHO-K1 DA) (Homo sapiens, UniProt P14416); test: Binding assay, dopaminergic D2 receptor ([3H]methylspiperone); settings: read-out: Inhibition constant Ki D2
T6 construct: purchased Invitrogen; host or cells: CHO-K1 (GeneBLAzer D2-Gqo5 CHO-K1 DA)
T6 sequence (P14416 whole entry): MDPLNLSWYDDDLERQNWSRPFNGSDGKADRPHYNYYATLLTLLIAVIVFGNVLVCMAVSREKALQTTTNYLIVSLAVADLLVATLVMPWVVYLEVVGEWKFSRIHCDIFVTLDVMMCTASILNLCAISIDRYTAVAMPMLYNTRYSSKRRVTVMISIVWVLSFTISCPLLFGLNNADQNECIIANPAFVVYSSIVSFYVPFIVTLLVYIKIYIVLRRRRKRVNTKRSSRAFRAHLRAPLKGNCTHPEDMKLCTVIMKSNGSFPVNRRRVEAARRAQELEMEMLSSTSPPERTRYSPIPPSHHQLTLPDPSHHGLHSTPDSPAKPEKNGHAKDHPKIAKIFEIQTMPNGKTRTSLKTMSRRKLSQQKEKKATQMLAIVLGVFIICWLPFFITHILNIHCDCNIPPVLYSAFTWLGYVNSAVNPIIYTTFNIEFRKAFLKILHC
Experimental: as §1, §2, §3

[8] = system: σ receptors (rat cerebral cortex); test: Binding assay, σ receptors ([3H]DTG); settings: compound 1×10^−6 M
Experimental: as §1, §2
as §3, with “factor). This analysis was performed using a software developed at Cerep (Hill software) and validated by comparison with data generated by the commercial software SigmaPlot® 4.0 for Windows® (©1997 by SPSS Inc.).” for “factor).”
Experimental conditions for tests are given in Table 14, and results of tests for representative compounds are given in Table 15a and 15b.

[9] = target: T7, human recombinant D3 receptors (Homo sapiens, UniProt P35462); test: Binding assay, dopaminergic D3 receptor ([3H]methylspiperone); settings: read-out: Inhibition constant Ki D3
T7 construct: purchased PerkinElmer
T7 sequence (P35462 whole entry): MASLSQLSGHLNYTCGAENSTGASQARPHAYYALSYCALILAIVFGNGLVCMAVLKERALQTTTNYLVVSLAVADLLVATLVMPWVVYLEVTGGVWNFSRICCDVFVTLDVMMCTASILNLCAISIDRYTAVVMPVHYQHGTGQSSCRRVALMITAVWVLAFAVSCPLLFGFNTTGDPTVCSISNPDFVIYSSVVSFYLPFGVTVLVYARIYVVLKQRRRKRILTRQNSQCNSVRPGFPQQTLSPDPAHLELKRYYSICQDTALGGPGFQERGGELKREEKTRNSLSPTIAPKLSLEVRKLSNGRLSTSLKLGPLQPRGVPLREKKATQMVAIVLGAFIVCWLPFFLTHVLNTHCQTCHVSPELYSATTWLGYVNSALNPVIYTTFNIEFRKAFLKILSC
Experimental: as §1, §2, §3

Swiss albino mice = test: Four-plate test in Swiss albino mice; format: in vivo
Experimental: Within 24 h prior to testing, animals were habituated to experimental conditions. For this purpose mice in home cages were transferred to the experimental room for 15 min., while maintaining the lighting and the “white noise” characteristic for the experiment.
The four-plate test (BIOSEB, France) was performed in a cage (25×18×16 cm) floored by four identical rectangular metal plates (8×11 cm) separated from one another by a gap of 4 mm. The top of the cage was covered by a transparent Perspex lid that prevented escape behaviour. The plates were connected to a device that generated electric shocks. Animals were placed individually in the experimental cage and following a 15-s habituation period, the animal's motivation to explore a novel environment was suppressed by an electric foot shock (0.8 mA, 0.5 s) every time it moved from one plate is to another during a 1-minute test session. This action is referred to as a ‘punished crossing’, and was followed by a 3 s shock interval, during which the animal could move across plates without receiving a shock. The measure of anxiolytic activity of the compound was the number of ‘punished crossings’ from one plate to the adjacent during 1-min test period.

[10] = target: T8, 5-HT7 receptor, human recombinant (Homo sapiens, UniProt P34969); test: Binding assay, 5-HT7 receptor ([3H]LSD); settings: read-out: Inhibition constant Ki 5-HT7
T8 construct: purchased PerkinElmer
T8 sequence (P34969 whole entry): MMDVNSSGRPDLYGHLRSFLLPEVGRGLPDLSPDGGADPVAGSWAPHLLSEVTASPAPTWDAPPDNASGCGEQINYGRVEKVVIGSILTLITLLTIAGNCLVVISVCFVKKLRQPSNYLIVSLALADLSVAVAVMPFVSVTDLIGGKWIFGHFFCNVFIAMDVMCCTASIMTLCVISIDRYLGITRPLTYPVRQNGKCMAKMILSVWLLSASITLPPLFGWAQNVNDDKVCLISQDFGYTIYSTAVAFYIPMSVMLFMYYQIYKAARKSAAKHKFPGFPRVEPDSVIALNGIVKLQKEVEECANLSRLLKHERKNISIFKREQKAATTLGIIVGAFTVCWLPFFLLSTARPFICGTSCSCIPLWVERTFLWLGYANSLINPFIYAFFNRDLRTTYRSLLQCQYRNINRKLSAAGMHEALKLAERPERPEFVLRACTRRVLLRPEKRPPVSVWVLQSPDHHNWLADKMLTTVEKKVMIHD
Experimental: as §1, §2, §3

SMILES | 5-HT2A-ag [%] [1] | Ki [2] | Ki [3] | M3 [%] affinity test result [4] | Ki [5] | Ki [6] | Ki [7] | σ [%] affinity test result [8] | Ki [9] | MED (minimum effective dose), four-plate test (Swiss albino mice; Swiss albino mice) | activity in words, four-plate test (Swiss albino mice; mice) | Ki [10]
O=C1CCc2ccc(OCCCCN3CCN(c4cccc5c4ccn5Cc4cccc(F)c4)CC3)cc2N1 [Compound 63, 7-[4-[4-[1-[(3-Fluorophenyl)methyl]indol-4-yl]piperazin-1-yl]butoxy]-3,4-dihydro-1H-quinolin-2-one] | 6% |  |  |  |  |  |  |  |  |  |  | 
O=C1CCc2ccc(OCCCCN3CCN(c4cccc5c4ccn5Cc4cccc(Cl)c4)CC3)cc2N1 [Compound 67, 7-[4-[4-[1-[(3-Chlorophenyl)methyl]indol-4-yl]piperazin-1-yl]butoxy]-3,4-dihydro-1H-quinolin-2-one] | 4% | 2.4 nM | 7 nM |  |  |  |  |  |  |  |  | 
NC(=O)c1ccccc1OCCCN1CCN(c2cccc3c2ccn3S(=O)(=O)c2ccccc2)CC1 [Compound 72, 2-[3-[4-[1-(Benzenesulfonyl)indol-4-yl]piperazin-1-yl]propoxy]-benzamide] | 2% |  | 3.9 nM | 23% | 18 nM | 0.31 nM | 3.2 nM |  |  |  |  | 
O=C1CCc2ccc(OCCCCN3CCN(c4cccc5c4ccn5Cc4ccccc4)CC3)cc2N1 [Compound 5, 7-(4-(4-(1-Benzyl-1H-indol-4-yl)piperazin-1-yl)butoxy)-3,4-dihydroquinolin-2(1H)-one] | 8% |  |  |  |  |  |  | 52% |  |  |  | 
O=C1CCc2ccc(OCCCN3CCN(c4cccc5c4ccn5Cc4ccccc4)CC3)cc2N1 [Compound 4, 7-[3-[4-(1-Benzylindol-4-yl)piperazin-1-yl]propoxy]-3,4-dihydro-1H-quinolin-2-one] | 2% |  |  |  |  |  |  | 45% |  |  |  | 
O=C1CCc2ccc(OCCCN3CCN(c4cccc5c4ccn5S(=O)(=O)c4ccccc4)CC3)cc2N1 [Compound 23, 7-[3-[4-[1-(Benzensulphonyl)indol-4-yl]piperazin-1-yl]propoxy]-3,4-dihydro-1H-quinolin-2-one] |  |  | 6.2 nM | 16% | 170 nM | 2.1 nM | 32 nM | 13% | 3.4 nM |  |  | 
O=C1CCc2ccc(OCCCCN3CCN(c4cccc5c4ccn5S(=O)(=O)c4ccccc4)CC3)cc2N1 [Compound 24, 7-(4-(4-(1-(Phenylsulphonyl)-1H-indol-4-yl)piperazin-1-yl)butoxy)-3,4-dihydroquinolin-2(1H)-one] |  |  | 1.2 nM | 37% | 3.2 nM | 0.35 nM | 1.3 nM | 57% | 0.81 nM | 5 mg/kg | active | 67 nM
